Measurements reported in patent US20130303509A1, “NAMPT INHIBITORS” (AbbVie Inc., priority 2012, published 2013).

System: PC3 cells
Assay: NAMPT Cell Proliferation Assay
Assay type: cell-based
Conditions: Homo sapiens, PC-3, 120 h, 5 days incubation, cell viability by Cell Titer Glo
Procedure: NAMPT Cell Proliferation Assay
PC3 cells were seeded in 96-well black plates (Corning #3904) at 500 cells)Owell in 90 µl of RPMI media containing 10% heat-inactivated FBS and incubated overnight at 37° C. and 5% CO2 to allow cells to attach to wells. The following day, test compounds were serially diluted in neat DMSO to 1000× final concentrations prior to dilution with RPMI media to 10× and 1% DMSO. […] of the 10× compounds were then transferred to wells containing cells to produce a dose response of 10-fold dilutions from […] to 1×10^−[…]. Cells were incubated for 5 days at 37° C. and 5% CO2, then cell viability was measured using Cell Titer Glo reagent (Promega #G7571). Percent inhibition values were calculated and fitted to a sigmoidal dose response curves using Assay Explorer software to determine IC50s.

Structure (SMILES)	IC50 [nM]
O=C(Nc1ccc(OC2CCN(C(=O)CC3CCOCC3)CC2)cc1)C1CN(c2cccnc2)C1 [Example 1, 1-(pyridin-3-yl)-N-(4-{[1-(tetrahydro-2H-pyran-4-ylacetyl)piperidin-4-yl]oxy}phenyl)azetidine-3-carboxamide]	6.56
CC(C)(O)C(=O)N1CCC(c2ccc(NC(=O)C3CN(c4cccnc4C#N)C3)cc2)CC1 [Example 2, 1-(2-cyanopyridin-3-yl)-N-{4-[1-(2-hydroxy-2-methylpropanoyl)piperidin-4-yl]phenyl}azetidine-3-carboxamide]	> 10000
O=C(Nc1ccc(OC2CCN(C(=O)CC3CCOCC3)CC2)cc1)C1CN(c2cccnc2C(F)(F)F)C1 [Example 3, N-(4-{[1-(tetrahydro-2H-pyran-4-ylacetyl)piperidin-4-yl]oxy}phenyl)-1-[2-(trifluoromethyl)pyridin-3-yl]azetidine-3-carboxamide]	7330
Cc1ncccc1N1CC(C(=O)Nc2ccc(OC3CCN(C(=O)CC4CCOCC4)CC3)cc2)C1 [Example 4, 1-(2-methylpyridin-3-yl)-N-(4-{[1-(tetrahydro-2H-pyran-4-ylacetyl)piperidin-4-yl]oxy}phenyl)azetidine-3-carboxamide]	112
Cc1ccncc1N1CC(C(=O)Nc2ccc(OC3CCN(C(=O)CC4CCOCC4)CC3)cc2)C1 [Example 5, 1-(4-methylpyridin-3-yl)-N-(4-{[1-(tetrahydro-2H-pyran-4-ylacetyl)piperidin-4-yl]oxy}phenyl)azetidine-3-carboxamide]	6.75
O=C(Nc1ccc(OC2CCN(C(=O)CC3CCOCC3)CC2)cc1)C1CN(c2cnccc2F)C1 [Example 6, 1-(4-fluoropyridin-3-yl)-N-(4-{[1-(tetrahydro-2H-pyran-4-ylacetyl)piperidin-4-yl]oxy}phenyl)azetidine-3-carboxamide]	67.7
O=C(Nc1ccc(OC2CCN(C(=O)CC3CCOCC3)CC2)cc1)C1CN(c2cnccc2C(F)(F)F)C1 [Example 7, N-(4-{[1-(tetrahydro-2H-pyran-4-ylacetyl)piperidin-4-yl]oxy}phenyl)-1-[4-(trifluoromethyl)pyridin-3-yl]azetidine-3-carboxamide]	876
CC(C)(C)OC(=O)N1CCC(Oc2ccc(NC(=O)[C@H]3CCN(c4cccnc4)C3)cc2)CC1 [Example 8, tert-butyl 4-[4-({[(3S)-1-(pyridin-3-yl)pyrrolidin-3-yl]carbonyl}amino)phenoxy]piperidine-1-carboxylate]	70.8
CC(C)(C)OC(=O)N1CCC(Oc2ccc(NC(=O)[C@@H]3CCN(c4cccnc4)C3)cc2)CC1 [Example 9, tert-butyl 4-[4-({[(3R)-1-(pyridin-3-yl)pyrrolidin-3-yl]carbonyl}amino)phenoxy]piperidine-1-carboxylate]	739
O=C(Nc1ccc(C2CCN(C(=O)[C@@H]3CCCO3)CC2)cc1)C1CN(c2cccnc2)C1 [Example 10, 1-(pyridin-3-yl)-N-(4-{1-[(2S)-tetrahydrofuran-2-ylcarbonyl]piperidin-4-yl}phenyl)azetidine-3-carboxamide]	1.84
O=C(Nc1ccc(OC2CCN(C(=O)CC3CCOCC3)CC2)cc1)[C@H]1CCN(c2cccnc2)C1 [Example 11, (3S)-1-(pyridin-3-yl)-N-(4-{[1-(tetrahydro-2H-pyran-4-ylacetyl)piperidin-4-yl]oxy}phenyl)pyrrolidine-3-carboxamide]	22.7
CC(C)C(=O)N1CCC(Oc2ccc(NC(=O)[C@H]3CCN(c4cccnc4)C3)cc2)CC1 [Example 12, (3S)-N-(4-{[1-(2-methylpropanoyl)piperidin-4-yl]oxy}phenyl)-1-(pyridin-3-yl)pyrrolidine-3-carboxamide]	84.4
O=C(Nc1ccc(OC2CCN(C(=O)[C@@H]3CCCO3)CC2)cc1)[C@H]1CCN(c2cccnc2)C1 [Example 13, (3S)-1-(pyridin-3-yl)-N-[4-({1-[(2S)-tetrahydrofuran-2-ylcarbonyl]piperidin-4-yl}oxy)phenyl]pyrrolidine-3-carboxamide]	79.1
O=C(Nc1ccc(OC2CCN(C(=O)[C@H]3CCCO3)CC2)cc1)[C@H]1CCN(c2cccnc2)C1 [Example 14, (3S)-1-(pyridin-3-yl)-N-[4-({1-[(2R)-tetrahydrofuran-2-ylcarbonyl]piperidin-4-yl}oxy)phenyl]pyrrolidine-3-carboxamide]	54.8
O=C(Nc1ccc(OC2CCN(C(=O)C3CCOC3)CC2)cc1)[C@H]1CCN(c2cccnc2)C1 (stereo partly drawn) [Example 15, (3S)-1-(pyridin-3-yl)-N-(4-{[1-(tetrahydrofuran-3-ylcarbonyl)piperidin-4-yl]oxy}phenyl)pyrrolidine-3-carboxamide]	34.7
O=C(Nc1ccc(OC2CCN(C(=O)CC3CC3)CC2)cc1)[C@H]1CCN(c2cccnc2)C1 [Example 16, (3S)-N-(4-{[1-(cyclopropylacetyl)piperidin-4-yl]oxy}phenyl)-1-(pyridin-3-yl)pyrrolidine-3-carboxamide]	92.6
CC(C)(O)C(=O)N1CCC(Oc2ccc(NC(=O)[C@H]3CCN(c4cccnc4)C3)cc2)CC1 [Example 17, (3S)-N-(4-{[1-(2-hydroxy-2-methylpropanoyl)piperidin-4-yl]oxy}phenyl)-1-(pyridin-3-yl)pyrrolidine-3-carboxamide]	93.7

Other lines, results leading:

IC50 [nM]	Structure (SMILES)
148	O=C(Nc1ccc(OC2CCN(C(=O)CC(F)(F)F)CC2)cc1)[C@H]1CCN(c2cccnc2)C1 [Example 18, (3S)-1-(pyridin-3-yl)-N-(4-{[1-(3,3,3-trifluoropropanoyl)piperidin-4-yl]oxy}phenyl)pyrrolidine-3-carboxamide]
56.4	CC[C@H](C)C(=O)N1CCC(Oc2ccc(NC(=O)[C@H]3CCN(c4cccnc4)C3)cc2)CC1 [Example 19, (3S)-N-[4-({1-[(2S)-2-methylbutanoyl]piperidin-4-yl}oxy)phenyl]-1-(pyridin-3-yl)pyrrolidine-3-carboxamide]
0.28	CC(C)(O)C(=O)N1CCC(c2ccc(NC(=O)C3CN(c4cccnc4)C3)cc2)CC1 [Example 20, N-{4-[1-(2-hydroxy-2-methylpropanoyl)piperidin-4-yl]phenyl}-1-(pyridin-3-yl)azetidine-3-carboxamide]
150	O=C(NC1CN(c2cccnc2)C1)c1ccc(OC2CCN(C(=O)CC3CCOCC3)CC2)cc1 [Example 21, N-[1-(pyridin-3-yl)azetidin-3-yl]-4-{[1-(tetrahydro-2H-pyran-4-ylacetyl)piperidin-4-yl]oxy}benzamide]
1.25	CC[C@H](C)C(=O)N1CCC(c2ccc(NC(=O)C3CN(c4cccnc4)C3)cc2)CC1 [Example 22, N-(4-{1-[(2S)-2-methylbutanoyl]piperidin-4-yl}phenyl)-1-(pyridin-3-yl)azetidine-3-carboxamide]
72.5	CC[C@H](C)C(=O)N1CCC(Oc2ccc(C(=O)NC3CN(c4cccnc4)C3)cc2)CC1 [Example 23, 4-({1-[(2S)-2-methylbutanoyl]piperidin-4-yl}oxy)-N-[1-(pyridin-3-yl)azetidin-3-yl]benzamide]
169	CC(C)(O)C(=O)N1CCC(Oc2ccc(C(=O)NC3CN(c4cccnc4)C3)cc2)CC1 [Example 24, 4-{[1-(2-hydroxy-2-methylpropanoyl)piperidin-4-yl]oxy}-N-[1-(pyridin-3-yl)azetidin-3-yl]benzamide]
1.41	O=C(Nc1ccc(C2CCN(C(=O)CC3CCOCC3)CC2)cc1)C1CN(c2cccnc2)C1 [Example 25, 1-(pyridin-3-yl)-N-{4-[1-(tetrahydro-2H-pyran-4-ylacetyl)piperidin-4-yl]phenyl}azetidine-3-carboxamide]
0.682	O=C(Nc1ccc(C2CCN(C(=O)c3ccccc3)CC2)cc1)C1CN(c2cccnc2)C1 [Example 26, N-[4-(1-benzoylpiperidin-4-yl)phenyl]-1-(pyridin-3-yl)azetidine-3-carboxamide]
> 10000	CC(C)(C)OC(=O)N1CCC(Oc2ccc(C(=O)N[C@H]3CCN(c4cccnc4)C3)cc2)CC1 [Example 27, tert-butyl 4-(4-{[(3S)-1-(pyridin-3-yl)pyrrolidin-3-yl]carbamoyl}phenoxy)piperidine-1-carboxylate]
> 10000	CC(C)(C)OC(=O)N1CCC(Oc2ccc(C(=O)N[C@@H]3CCN(c4cccnc4)C3)cc2)CC1 [Example 28, tert-butyl 4-(4-{[(3R)-1-(pyridin-3-yl)pyrrolidin-3-yl]carbamoyl}phenoxy)piperidine-1-carboxylate]
135	Cc1ncccc1N1CC(C(=O)Nc2ccc(C3CCN(C(=O)C(C)C)CC3)cc2)C1 [Example 29, N-{4-[1-(2-methylpropanoyl)piperidin-4-yl]phenyl}-1-(2-methylpyridin-3-yl)azetidine-3-carboxamide]
1.97	CC(C)C(=O)N1CCC(c2ccc(NC(=O)C3CN(c4cccnc4)C3)cc2)CC1 [Example 30, N-{4-[1-(2-methylpropanoyl)piperidin-4-yl]phenyl}-1-(pyridin-3-yl)azetidine-3-carboxamide]
6.9	CC(C)(O)C(=O)N1CCC(Oc2ccc(NC(=O)C3CN(c4cccnc4)C3)cc2)CC1 [Example 31, N-(4-{[1-(2-hydroxy-2-methylpropanoyl)piperidin-4-yl]oxy}phenyl)-1-(pyridin-3-yl)azetidine-3-carboxamide]
6.54	CC[C@H](C)C(=O)N1CCC(Oc2ccc(NC(=O)C3CN(c4cccnc4)C3)cc2)CC1 [Example 32, N-[4-({1-[(2S)-2-methylbutanoyl]piperidin-4-yl}oxy)phenyl]-1-(pyridin-3-yl)azetidine-3-carboxamide]
3.66	O=C(Nc1ccc(OC2CCN(C(=O)[C@@H]3CCCO3)CC2)cc1)C1CN(c2cccnc2)C1 [Example 33, 1-(pyridin-3-yl)-N-[4-({1-[(2S)-tetrahydrofuran-2-ylcarbonyl]piperidin-4-yl}oxy)phenyl]azetidine-3-carboxamide]
